According to US20120156715A1, “Environmental Sentinel Biomonitor System (ESB)” (priority 2010, published 2012):
Where two headings read alike, the source gives them in different places.

Assays:
[1] = test system: RTgill-W1 cells; assay type: cell-based, rainbow trout, Oncorhynchus mykiss
[2] = test system: RTgill-W1 cells; test: Long-term storage testing of RTgill-W1 fluidic biochips with PCP exposure (ECIS); assay type: cell-based, rainbow trout, Oncorhynchus mykiss; details: 9.4 μM
Description: The following description provides an example of a method for long-term testing of RTgill-W1 fluidic biochips according to an embodiment of the invention. In order to study the effects of cold storage with no media replenishment on the viability and sensitivity of the RTgill-W1 cells, fluidic biochips are seeded, held at 20° C., and media changes are performed on days 4 and 7 as described above, then held at 6° C. with no media replenishment for up to one year. Three chips are removed for viability assessment and ECIS testing using the 9.4 μM detection level for PCP (FIG. 1) at 4, 8, 12, 16, 20, 24, 32, 38, and 52 weeks and the chemical exposure procedure described above.
The following description provides an example of a method for statistical analysis according to an embodiment of the invention. A curve discrimination program using MATLAB (available from The MathWorks, Inc., Natick, Mass.) is used to perform the statistical analysis. […] This program analyzes impedance data from control and toxicant-exposed cells every minute during a 60 minute window. The overall difference between the two groups of curves is compared at each time point, and the difference between their averages is assessed relative to the within-group variability. A confidence level of […] (p<0.001) is used to establish statistical significance. Functional data analysis techniques are used to extend the standard single time point analysis of variance approach to a curve consisting of approximately 60 points. The lowest toxicant concentrations that cause a significant change in impedance in at least ten consecutive time intervals over a 60 minute period are reported as the detection levels in FIG. 1.
Unfed RTgill-W1 cells are maintained at 6° C. for different durations and subsequently tested with PCP exposures at 9.4 μM. […] The line with triangle data points and the line with square data points show, respectively, 1-hour and 4-hour average of response difference between the control and treatment channels at each respective storage time for 3 replicate fluidic biochips. Significance at each time point (p<0.001) is depicted by an * and requires a positive detection for all 3 replicate chips using the curve discrimination program. […] If the impedance patterns shown for the 12° C. and 20° C. chips are predictive indicators of the impedance patterns of the 6° C. chips, the 6° C. chips may remain viable for approximately 18 months, but most likely not beyond 2 years of storage.

[3] = one hour exposure, MEG = Military Exposure Guideline, HLC = Human Lethal Concentration, ECIS impedance

Which results are given for `C=CC#N` [Acrylonitrile, acrylonitrile]?
chips in which the chemical is detected ([1]; at levels above the HLC): 3 out of 3; concentration at which the chemical is detected, relative to MEG and HLC [1, 3]: above the HLC

For sodium arsenite [arsenic], which “change in impedance compared to controls” value [1] is on record?
Its value is “significant decrease”.

And the “concentration at which the chemical is detected, relative to MEG and HLC” value (“concentration … relative to MEG and HLC” for short) [1]?
The value was “between the MEG and the HLC”.

Which “chips in which the chemical is detected” value [1] does the source give for `O=C([O-])CF.[Na+]` [fluoroacetate, sodium fluoroacetate] here?
Its value is 3 out of 3.

And the “concentration … relative to MEG and HLC” value [1]?
Its value is “above the HLC”.

`Cl.N` [ammonia, ammonium chloride] was tested. Which “change in impedance compared to controls” value ([1]; one hour exposure, p<0.001) did it give?
The value was “significant decrease”.

What does the source list for `CNC(=O)O/N=C/C(C)(C)SC` [aldicarb]?
chips in which the chemical is detected ([1]; at levels above the HLC): 3 out of 3; concentration at which the chemical is detected, relative to MEG and HLC [1, 3]: above the HLC

Which results are given for `O=S(=O)([O-])[O-].[Tl+].[Tl+]` [thallium, thallium sulfate]?
chips in which the chemical is detected ([1]; at levels above the HLC): 3 out of 3; concentration at which the chemical is detected, relative to MEG and HLC [1, 3]: above the HLC

For `COP(N)(=O)SC` (stereo not drawn) [methamidophos], which “chips in which the chemical is detected” value ([1]; at levels above the HLC) is on record?
Its value is 3 out of 3.

And the “concentration … relative to MEG and HLC” value [1, 3]?
The value was “above the HLC”.

How did the “change in impedance compared to controls” value [1] turn out when `COP(=S)(OC)Oc1ccc([N+](=O)[O-])cc1` [methyl parathion] was run?
Its value is “significant decrease”.

What about the “concentration … relative to MEG and HLC” value [1] of the same compound?
Its value is “between the MEG and the HLC”.

`Oc1ccccc1` [phenol] was tested. Which “chips in which the chemical is detected” value [1] did it give?
The value was 3 out of 3.

And the “concentration … relative to MEG and HLC” value [1]?
The value was “above the HLC”.

mercuric chloride [mercury] was tested. Which “change in impedance compared to controls” value [1] did it give?
The value was “significant decrease”.

And the “concentration … relative to MEG and HLC” value [1]?
Its value is “between the MEG and the HLC”.

With `CN1CCCC1c1cccnc1` (stereo not drawn) [nicotine] as the compound, how does the “chips in which the chemical is detected” value [1] read?
The value was 3 out of 3.

What about the “concentration … relative to MEG and HLC” value [1] of the same compound?
The value was “above the HLC”.

For `[N-]=[N+]=[N-]` [azide], which “change in impedance compared to controls” value [1] is on record?
The value was “significant decrease”.

And the “concentration … relative to MEG and HLC” value [1]?
The value was “between the MEG and the HLC”.

With `O=S(=O)([O-])[O-].[Cu+2]` [copper, copper sulfate] as the compound, how does the “change in impedance compared to controls” value [1] read?
The value was “increased impedance”.

What about the “concentration … relative to MEG and HLC” value [1] of the same compound?
Its value is “between the MEG and the HLC”.

How did the “chips in which the chemical is detected” value ([1]; at levels above the HLC) turn out when `C[n+]1ccc(-c2cc[n+](C)cc2)cc1` [paraquat, paraquat dichloride] was run?
The value was 3 out of 3.

What about the “concentration … relative to MEG and HLC” value [1, 3] of the same compound?
Its value is “above the HLC”.

With `Oc1c(Cl)c(Cl)c(Cl)c(Cl)c1Cl` [pentachlorophenate, sodium pentachlorophenate] as the compound, how does the detection level ([1]; lowest concentration causing significant impedance change in at least ten consecutive time intervals over 60 minutes) read?
Its detection level is 9.4 µM.

And the “concentration … relative to MEG and HLC” value [1, 3]?
Its value is “between the MEG and the HLC”.

What about the “change in impedance compared to controls” value ([1]; one hour exposure, p<0.001) of the same compound?
Its value is “significant decrease”.

What about the “responsiveness after one year storage” value ([2]; 1 hour and 4 hour exposures, one year storage at 6° C.) of the same compound?
Its value is “significantly responsive”.

And the “response to PCP exposure” value ([2]; chips stored at 6° C. unfed, all storage time points indicated)?
The value was “positive response”.

What about the “significance of response, 4 hours exposure” value ([2]; storage at 6° C., additional at 140 and 266 days, p<0.001, 3 replicate chips) of the same compound?
Its value is “significant responses”.

And the “significance of response, 1 hour exposure” value ([2]; storage at 6° C., time points of 14-114 days and 364 days, p<0.001, 3 replicate chips)?
The value was “significant”.

For `Cc1ccccc1` [toluene], which “change in impedance compared to controls” value [1] is on record?
Its value is “significant decrease”.

And the “concentration … relative to MEG and HLC” value [1]?
The value was “between the MEG and the HLC”.
